Experimental data published in patent publication EP0145177A2, “Chemotherapeutic agents based on rhizoxin” (priority 1983, dated 1985).

How the values were obtained:
[1] = tested on: plant pathogenic bacteria; experiment: Multiplication of plant pathogenic bacteria; type: cell-based; details: bacteria that are prokaryotes
Method: (§1) Rhizoxin has an action which can induce the characteristic symptoms of rice seedling blight, even at an extremely low concentration (10 ng/ml).

[2] = tested on: ascites tumor MH-134 cells due to the cancer of the liver; experiment: Antitumor activity against ascites tumor MH-134 in mice (Test Example 1); type: in vivo, C3H/He mice; details: for Average life span: once a day for 10 days from 24 hours after inoculation, control 17.2 days; for T/C (%): once a day for 10 days, ratio of average life span, treated/control x 100
Method: 1 x 10^6 of ascites tumor MH-134 cells due to the cancer of the liver were intraperitoneally inoculated into C3H/He mice (8 weeks old, each group 6 mice). Rhizoxin was dissolved with the addition of a small quantity of ethyl alcohol (not more than 1 volume percent on the basis of the total volume of the final solution), and further dissolved in a 0.85 X aqueous physiological sodium chloride solution containing 0.05 % of Tween 20. This solution was aseptically filtered, and 24 hours after the tumor inoculation, the solution was intraperitoneally administered to the mice continually for 10 days at a rate of 0.2 ml/mouse once a day. The antitumor activity of Rhizoxin was evaluated on the basis of the ratio (T/C) x 100 wherein T is the average life span of the Rhizoxin administered groups and C is the average life span of the control group.

[3] = tested on: leukemia P-388 cells; experiment: Antitumor activity against Vincristine sensitive leukemia P-388 in mice (Test Example 4); type: in vivo, CDF1 mice; details: for ILS (%): P-388
Source text: (§2) Vincristine resistant or sensitive leukemia P-388 cells (1 x 10^6 cells) were intraperitoneally inoculated into CDF1 mice. Intraperitoneal administration of Rhizoxin and Vincristine was made on 1, 6 and 9 days after the tumor inoculation. The result is shown in Table 4 in terms of a percentage of an increase in the average life span of the treated mice over that of the control mice.

[4] = Toxicity by intraperitoneal injection into mice; details: mouse, in vivo, ip, C3H/He mice, read-out: LDS 0 value
Method: The toxicity of Rhizoxin was examined by the intraperitoneal injection of said compound into C3H/He mice, and as the LDS 0 value was above 5 mg/kg, it may be mentioned that the value is far above the dosage usually given in treatment.

[5] = tested on: rice seedling; experiment: Induction of the characteristic symptoms of rice seedling blight; type: in vivo; details: Oryza sativa; extremely low concentration at which the action is still seen; read-out: concentration that can induce the characteristic symptoms of rice seedling blight
Method: as §1

[6] = Solubility in solvents; type: physicochemical
[7] = tested on: plants other than rice; experiment: Growth of the root of plants other than rice; details: in vivo
Method: as §1

[8] = tested on: Leukemia L-1210 cells; experiment: Antitumor activity against leukemia L-1210 in mice (Test Example 2); type: in vivo, CDF1 mice; details: daily for 4 days; for ILS (%): increase in life span over control
Method: Leukemia L-1210 cells (1 x 10^5 cells) were intraperitoneally inoculated into CDF1 mice. Intraperitoneal administration of Rhizoxin was started 24 hours after the tumor inoculation and continued daily for 4 days. The result is shown in Table 2 in terms of a percentage of an increase in the life span of the treated mice over that of the control mice (ILS).

[9] = tested on: plant pathogenic fungi; experiment: Growth of plant pathogenic fungi; type: cell-based
Method: as §1

[10] = tested on: B-16 melanoma; experiment: Tumor growth inhibition of B-16 melanoma in mice (Test Example 3); type: in vivo, BDF1 mice; details: daily for 4 days, based on tumor weight from tumor diameter
Method: Tumor fragments of B-16 melanoma were subcutaneously inoculated into BDF1 mice. Intraperitoneal administration of Rhizoxin was begun 24 hours after the tumor inoculation and continued daily for 4 days.
The-result is shown in Table 3 in terms of a percentage of tumor growth inhibition based on the tumor weight which can be obtained from the measurement of the tumor diameter.

[11] = tested on: Vincristine resistant leukemia P-388 cells (P-388/VCR); experiment: Antitumor activity against Vincristine resistant leukemia P-388 in mice (Test Example 4); type: in vivo, CDF1 mice; details: for ILS (%): P-388/VCR; for effectiveness against Vincristine resistant leukemia P-388: summary in words of Table 4
Source text: as §2

[12] = 15 mcg/Kg/day intraperitoneally
[13] = 150 mcg/Kg/day intraperitoneally
[14] = 0.75 mg/Kg/day intraperitoneally on 1, 6 and 9 days after inoculation
[15] = 1.0 mg/Kg/day intraperitoneally on 1, 6 and 9 days after inoculation
[16] = 1.5 mg/Kg/day intraperitoneally on 1, 6 and 9 days after inoculation
[17] = 0.25 mg/Kg/day intraperitoneally
[18] = 0.5 mg/Kg/day intraperitoneally
[19] = 1.0 mg/Kg/day intraperitoneally
[20] = 2.0 mg/Kg/day intraperitoneally on 1, 6 and 9 days after inoculation

With `CO[C@@H](/C(C)=C/C=C/C(C)=C/c1coc(C)n1)[C@@H](C)[C@@H]1C[C@H](O)[C@@]2(C)O[C@@H]2/C=C/[C@@H](C)[C@H]2C[C@H](CC(=O)O2)C[C@@H]2O[C@H]2C(=O)O1` [Rhizoxin] the “action on the multiplication of the plant pathogenic bacteria” value [1] was “no recognizable action”, the “Average life span” value [2, 12] was 31.8 days and the “T/C (%)” value [2, 12] was 185%. The “Average life span” value [2, 13] was 47.8 days, the “T/C (%)” value [2, 13] was 278% and the “ILS (%)” value ([3]; 0.5 mg/Kg/day intraperitoneally on 1, 6 and 9 days after inoculation) was 46.2%. The “ILS (%)” value [3, 14] was 65.6%, the “ILS (%)” value [3, 15] was 82.9% and the “ILS (%)” value [3, 16] was 123.7%. The “ILS (%)” value ([3]; 3.0 mg/Kg/day intraperitoneally on 1, 6 and 9 days after inoculation) was “toxic”, the “effectiveness against leukemia P-388” value ([3]; summary in words of Table 4) was “effective” and the LD50 [4] was over 5 mg/kg. For the same compound, the minimal effective concentration [5] was 0.01 µg/mL, the Solubility in solvents ([6]; benzene, chloroform, acetone, alcohol, etc.) was “Easily soluble” and the Solubility in solvents ([6]; water, n-hexane) was “sparingly soluble”. The “action on the growth of the root of the plants other than rice” value [7] was “check the growth of the root”, the “Change in body weight (g) (day 1-7)” value [8, 17] was “+0.4 g” and the “ILS (%)” value [8, 17] was 43%. The “Change in body weight (g) (day 1-7)” value [8, 18] was -0.7 g, the “ILS (%)” value [8, 18] was 67% and the “Change in body weight (g) (day 1-7)” value [8, 19] was -2.9 g. For the same compound, the “ILS (%)” value [8, 19] was 81%, the “ILS (%)” value ([8]; 2.0 mg/Kg/day intraperitoneally) was “toxic” and the “action on the growth of plant pathogenic fungi” value [9] was “inhibits the growth”. The “Tumor growth inhibition (%)” value [10, 17] was 38%, the “Tumor growth inhibition (%)” value [10, 18] was 68% and the “Tumor growth inhibition (%)” value [10, 19] was 62%. The “ILS (%)” value [11, 14] was 28.2%, the “ILS (%)” value [11, 15] was 35.9% and the “ILS (%)” value [11, 16] was 57.3%. For the same compound, the “ILS (%)” value [11, 20] was 61.2%, the “ILS (%)” value ([11]; 4.0 mg/Kg/day intraperitoneally on 1, 6 and 9 days after inoculation) was “toxic” and the “effectiveness against Vincristine resistant leukemia P-388” value [11] was “clearly effective”.
For `CC[C@]1(O)C[C@H]2CN(CCc3c([nH]c4ccccc34)[C@@](C(=O)OC)(c3cc4c(cc3OC)N(C=O)[C@H]3[C@@](O)(C(=O)OC)[C@H](OC(C)=O)[C@]5(CC)C=CCN6CC[C@]43[C@@H]65)C2)C1` [Vincristine, reference compound], the “ILS (%)” value [11, 15] was 6.8%, the “ILS (%)” value [11, 20] was “toxic” and the “effectiveness against Vincristine resistant leukemia P-388” value [11] was “not affected”.
